# Measurements: US9029359B2, “Heteroaryl Btk inhibitors” (Biogen Idec MA, Inc., priority 2009, dated 2015)
# Target: T1, BTK (Homo sapiens, UniProt Q06187)
# T1 construct: purchased Upstate 14-552
# Assay: In vitro BTK kinase assay: BTK-POLYGAT-LS ASSAY
# Format: biochemical
# Settings: ATP 10 uM
# Protocol: In vitro BTK kinase assay: BTK-POLYGAT-LS ASSAY. The purpose of the BTK in vitro assay is to determine compound potency against BTK through the measurement of IC50. […] A 24 μL aliquot of a ATP/peptide master mix (final concentration; ATP 10 μM, polyGAT 100 nM) in kinase buffer (10 mM Tris-HCl pH 7.5, 10 mM MgCl2, 200 μM Na3VO4, 5 mM DTT, 0.01% Triton X-100, and 0.2 mg/ml Casein) is added to each well. […] The assay is incubated for 30 minutes before being stopped with 28 μL of a 50 mM EDTA solution. […] The plate is covered and incubated for 45 minutes at room temperature. Time resolved fluorescence (TRF) on Molecular Devices M5 (332 nm excitation; 488 nm emission; 518 nm fluorescein emission) is measured.
# T1 sequence (Q06187 whole entry): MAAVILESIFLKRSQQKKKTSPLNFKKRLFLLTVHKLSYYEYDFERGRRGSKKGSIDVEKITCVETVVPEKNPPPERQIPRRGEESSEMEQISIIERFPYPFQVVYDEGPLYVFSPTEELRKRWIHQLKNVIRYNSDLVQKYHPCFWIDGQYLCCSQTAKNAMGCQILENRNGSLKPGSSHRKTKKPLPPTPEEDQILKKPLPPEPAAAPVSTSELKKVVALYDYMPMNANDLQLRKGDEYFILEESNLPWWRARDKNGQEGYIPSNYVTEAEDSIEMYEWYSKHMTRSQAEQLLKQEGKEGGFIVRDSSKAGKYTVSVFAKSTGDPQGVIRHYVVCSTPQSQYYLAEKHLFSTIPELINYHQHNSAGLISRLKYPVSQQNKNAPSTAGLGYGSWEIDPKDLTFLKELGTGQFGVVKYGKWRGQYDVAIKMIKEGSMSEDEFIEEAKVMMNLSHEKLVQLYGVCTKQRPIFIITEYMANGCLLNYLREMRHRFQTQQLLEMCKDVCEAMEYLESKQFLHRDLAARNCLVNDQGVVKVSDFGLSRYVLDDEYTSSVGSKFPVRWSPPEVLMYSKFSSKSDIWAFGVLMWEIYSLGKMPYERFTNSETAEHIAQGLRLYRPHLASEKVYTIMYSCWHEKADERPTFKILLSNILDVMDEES
row,IC50,Compound
1,100 to 999 nM,N#Cc1cc(Cl)cc(NCC(=O)N[C@@H]2CCCN(c3ncnc4[nH]ccc34)C2)c1 [Example 297]
2,< 100 nM,"CC(C)(C)[C@@H](Nc1cc(F)cc(Cl)c1)C(=O)N[C@@H]1CCCN(c2ncnc3[nH]ccc23)C1 [Example 124, (R)—N—((R)-1-(7H-pyrrolo[2,3-d]pyrimidin-4-yl)piperidin-3-yl)-2-(3-chloro-5-fluorophenylamino)-3,3-dimethylbutanamide]"
3,< 100 nM,"CC[C@@H](Nc1cc(Cl)cc(Cl)c1)C(=O)N[C@@H]1CCCN(c2ncnc3[nH]ncc23)C1 [Example 130, (R)—N—((R)-1-(1H-pyrazolo[3,4-d]pyrimidin-4-yl)piperidin-3-yl)-2-(3,5-dichlorophenylamino)butanamide]"
4,> 10000 nM,O=C(CNc1ccncc1)NC1CCCN(c2ncnc3[nH]ccc23)C1 (centres unmarked) [Example 353]
5,< 100 nM,CC(C)(C)C1CCN(S(=O)(=O)c2ccccc2NCC(=O)N[C@@H]2CCCN(c3ncnc4[nH]ccc34)C2)CC1 [Example 265]
6,100 to 999 nM,CC[C@@H](Nc1cc(Cl)cc(Cl)c1)C(=O)N[C@H]1CN(c2ncnc3[nH]ncc23)CC[C@@H]1C [Example 369]
7,> 10000 nM,Cc1cc(NCC(=O)NC2CCCN(c3ncnc4[nH]ccc34)C2)n(C)n1 (centres unmarked) [Example 347]
8,< 100 nM,O=C(CNc1ccccc1S(=O)(=O)N1CCCCC1)N[C@@H]1CCCN(c2ncnc3[nH]ncc23)C1 [Example 183]
9,1000 to 10000 nM,O=C(CNc1ccc2[nH]ncc2c1)N[C@@H]1CCCN(c2ncnc3[nH]ccc23)C1 [Example 406]
10,100 to 999 nM,O=C(CNc1ccccc1)N(CCN1CCOCC1)C1CCCN(c2ncnc3[nH]ccc23)C1 (centres unmarked) [Example 323]
11,1000 to 10000 nM,"CC(C)(C)c1ccccc1NCC(=O)NC1CCCN(c2ncnc3[nH]ccc23)C1 (centres unmarked) [Example 17, (N-(1-(7H-pyrrolo[2,3-d]pyrimidin-4-yl)piperidin-3-yl)-2-(2-tert-butylphenylamino)acetamide)]"
12,100 to 999 nM,CCC[C@@H](Nc1ccccc1)C(=O)N[C@@H]1CCCN(c2ncnc3[nH]ccc23)C1 [Example 257]
13,< 100 nM,CCCCOc1ccccc1NCC(=O)N[C@@H]1CCCN(c2ncnc3[nH]ccc23)C1 [Example 199]
14,100 to 999 nM,"O=C(CNc1ccc(Cl)cc1)NC1CCCN(c2ncnc3[nH]ccc23)C1 (centres unmarked) [Example 22, (N-(1-(7H-pyrrolo[2,3-d]pyrimidin-4-yl)piperidin-3-yl)-2-(4-chlorophenylamino)acetamide)]"
15,100 to 999 nM,O=C(CNc1ccccc1OCC1CC1)N[C@@H]1CCCN(c2ncnc3[nH]ncc23)C1 [Example 380]
16,100 to 999 nM,Cc1cccc(NCC(=O)N[C@@H]2CCCN(c3ncnc4[nH]ccc34)C2)c1 [Example 237]
17,> 10000 nM,Cn1nc(-c2ccccc2)cc1NCC(=O)NC1CCCN(c2ncnc3[nH]ccc23)C1 (centres unmarked) [Example 351]
18,1000 to 10000 nM,O=C(CNc1ccccc1N1CCOCC1)N[C@@H]1CCCN(c2ncnc3[nH]ccc23)C1 [Example 444]
19,< 100 nM,C[C@H](O)[C@@H](Nc1cc(F)cc(Cl)c1)C(=O)N[C@@H]1CCCN(c2ncnc3[nH]ncc23)C1 [Example 174]
20,100 to 999 nM,"COc1cccc(NCC(=O)NC2CCCN(c3ncnc4[nH]ccc34)C2)c1 (centres unmarked) [Example 32, (N-(1-(7H-pyrrolo[2,3-d]pyrimidin-4-yl)piperidin-3-yl)-2-(3-methoxyphenylamino)acetamide)]"
21,1000 to 10000 nM,O=C(CNc1cccc(O)c1)N[C@@H]1CCCN(c2ncnc3[nH]ccc23)C1 [Example 401]
22,< 100 nM,O=C(CNc1ccccc1OC1CCCCCC1)N[C@@H]1CCCN(c2ncnc3[nH]ccc23)C1 [Example 251]
23,1000 to 10000 nM,"Cn1ncc2c(NCC(=O)NC3CCCN(c4ncnc5[nH]ccc45)C3)cccc21 (centres unmarked) [Example 78, (N-(1-(7H-pyrrolo[2,3-d]pyrimidin-4-yl)piperidin-3-yl)-2-(1-methyl-1H-indazol-4-ylamino)acetamide)]"
